Setting [1] is: 0.1N HCl, 1.0% DMSO, 24-hour incubation at ambient temperature, maximum theoretical 100 μM, first value of the cell.
Where [2] appears, read: 1×PBS buffer (pH 7.4), 1.0% DMSO, 24-hour incubation at ambient temperature, maximum theoretical 100 μM, second value of the cell.

Where two headings read alike, the source gives them in different places.

In the case of `CC(C)(CO)C(=O)OCN(c1nn(CC(F)(F)F)c2c(-c3ccc(C#CC(C)(C)S(C)(=O)=O)nc3[C@H](Cc3cc(F)cc(F)c3)NC(=O)Cn3nc(C(F)(F)F)c4c3C(F)(F)[C@@H]3C[C@H]43)ccc(Cl)c12)S(C)(=O)=O` [Compound 24, (N-(4-chloro-7-(2-((S)-1-(2-((3bS,4aR)-5,5-difluoro-3-(trifluoromethyl)-3b,4,4a,5-tetrahydro-1H-cyclopropa[3,4]cyclopenta[1,2-c]pyrazol-1-yl)acetamido)-2-(3,5-difluorophenyl)ethyl)-6-(3-methyl-3-(methylsulfonyl)but-1-yn-1-yl)pyridin-3-yl)-1-(2,2,2-trifluoroethyl)-1H-indazol-3-yl)methylsulfonamido)methyl 3-hydroxy-2,2-dimethylpropanoate], the “pH 2 solubility” value under setting [1] is 1/1 μM. Also, under setting [2], the “pH 7 solubility” value is recorded as 1/1 μM.
Consider `CC(C)(C#Cc1ccc(-c2ccc(Cl)c3c(N(C(=O)OCCCN)S(C)(=O)=O)nn(CC(F)(F)F)c23)c([C@H](Cc2cc(F)cc(F)c2)NC(=O)Cn2nc(C(F)(F)F)c3c2C(F)(F)[C@@H]2C[C@H]32)n1)S(C)(=O)=O` [Compound 129, 3-aminopropyl (4-chloro-7-(2-((S)-1-(2-((3bS,4aR)-5,5-difluoro-3-(trifluoromethyl)-3b,4,4a,5-tetrahydro-1H-cyclopropa[3,4]cyclopenta[1,2-c]pyrazol-1-yl)acetamido)-2-(3,5-difluorophenyl)ethyl)-6-(3-methyl-3-(methylsulfonyl)but-1-yn-1-yl)pyridin-3-yl)-1-(2,2,2-trifluoroethyl)-1H-indazol-3-yl)(methylsulfonyl)carbamate], for which the “pH 2 solubility” value under setting [1] is recorded as 54 μM. In addition, the “pH 7 solubility” value under setting [2] is reported as 7 μM.
As to `CC(C)(C#Cc1ccc(-c2ccc(Cl)c3c(N(C(=O)OCCCCCOP(=O)(O)O)S(C)(=O)=O)nn(CC(F)(F)F)c23)c([C@H](Cc2cc(F)cc(F)c2)NC(=O)Cn2nc(C(F)(F)F)c3c2C(F)(F)[C@@H]2C[C@H]32)n1)S(C)(=O)=O` [Compound 104, 5-(phosphonooxy)pentyl (4-chloro-7-(2-((S)-1-(2-((3bS,4aR)-5,5-difluoro-3-(trifluoromethyl)-3b,4,4a,5-tetrahydro-1H-cyclopropa[3,4]cyclopenta[1,2-c]pyrazol-1-yl)acetamido)-2-(3,5-difluorophenyl)ethyl)-6-(3-methyl-3-(methylsulfonyl)but-1-yn-1-yl)pyridin-3-yl)-1-(2,2,2-trifluoroethyl)-1H-indazol-3-yl)(methylsulfonyl)carbamate], the “pH 2 solubility” value under setting [1] is listed as 1 μM. For the same compound, under setting [2], the “pH 7 solubility” value turned out to be 89 μM.
Consider `CC(C)(C#Cc1ccc(-c2ccc(Cl)c3c(N(C(=O)C(=O)NCCP(=O)(O)O)S(C)(=O)=O)nn(CC(F)(F)F)c23)c([C@H](Cc2cc(F)cc(F)c2)NC(=O)Cn2nc(C(F)(F)F)c3c2C(F)(F)[C@@H]2C[C@H]32)n1)S(C)(=O)=O` [Compound 11, (2-(2-(N-(4-chloro-7-(2-((S)-1-(2-((3bS,4aR)-5,5-difluoro-3-(trifluoromethyl)-3b,4,4a,5-tetrahydro-1H-cyclopropa[3,4]cyclopenta[1,2-c]pyrazol-1-yl)acetamido)-2-(3,5-difluorophenyl)ethyl)-6-(3-methyl-3-(methylsulfonyl)but-1-yn-1-yl)pyridin-3-yl)-1-(2,2,2-trifluoroethyl)-1H-indazol-3-yl)methylsulfonamido)-2-oxoacetamido)ethyl)phosphonic acid], for which the “pH 2 solubility” value under setting [1] turned out to be 5 μM. For the same compound, the “pH 7 solubility” value under setting [2] was found to be 36 μM.
Regarding `CC(C)(C#Cc1ccc(-c2ccc(Cl)c3c(N(C(=O)NC(CO)CO)S(C)(=O)=O)nn(CC(F)(F)F)c23)c([C@H](Cc2cc(F)cc(F)c2)NC(=O)Cn2nc(C(F)(F)F)c3c2C(F)(F)[C@@H]2C[C@H]32)n1)S(C)(=O)=O` [Compound 36, N—((S)-1-(3-(4-chloro-3-(N-((1,3-dihydroxypropan-2-yl)carbamoyl)methylsulfonamido)-1-(2,2,2-trifluoroethyl)-1H-indazol-7-yl)-6-(3-methyl-3-(methylsulfonyl)but-1-yn-1-yl)pyridin-2-yl)-2-(3,5-difluorophenyl)ethyl)-2-((3bS,4aR)-5,5-difluoro-3-(trifluoromethyl)-3b,4,4a,5-tetrahydro-1H-cyclopropa[3,4]cyclopenta[1,2-c]pyrazol-1-yl)acetamide], the “pH 2 solubility” value under setting [1] came out at 1 μM. Also, the “pH 7 solubility” value under setting [2] is recorded as 5 μM.
Consider `CC(C)(C#Cc1ccc(-c2ccc(Cl)c3c(N(C(=O)N(CC(=O)O)CC(=O)O)S(C)(=O)=O)nn(CC(F)(F)F)c23)c([C@H](Cc2cc(F)cc(F)c2)NC(=O)Cn2nc(C(F)(F)F)c3c2C(F)(F)[C@@H]2C[C@H]32)n1)S(C)(=O)=O` [Compound 78, 2,2′-(((4-chloro-7-(2-((S)-1-(2-((3bS,4aR)-5,5-difluoro-3-(trifluoromethyl)-3b,4,4a,5-tetrahydro-1H-cyclopropa[3,4]cyclopenta[1,2-c]pyrazol-1-yl)acetamido)-2-(3,5-difluorophenyl)ethyl)-6-(3-methyl-3-(methylsulfonyl)but-1-yn-1-yl)pyridin-3-yl)-1-(2,2,2-trifluoroethyl)-1H-indazol-3-yl)(methylsulfonyl)carbamoyl)azanediyl)diacetic acid], for which the “pH 2 solubility” value under setting [1] worked out at 14 μM. Further, the “pH 7 solubility” value under setting [2] was 22 μM.
Regarding `CC(C)(COP(=O)(O)O)C(=O)OCN(c1nn(CC(F)(F)F)c2c(-c3ccc(C#CC(C)(C)S(C)(=O)=O)nc3[C@H](Cc3cc(F)cc(F)c3)NC(=O)Cn3nc(C(F)(F)F)c4c3C(F)(F)[C@@H]3C[C@H]43)ccc(Cl)c12)S(C)(=O)=O` [Compound 25, (N-(4-chloro-7-(2-((S)-1-(2-((3bS,4aR)-5,5-difluoro-3-(trifluoromethyl)-3b,4,4a,5-tetrahydro-1H-cyclopropa[3,4]cyclopenta[1,2-c]pyrazol-1-yl)acetamido)-2-(3,5-difluorophenyl)ethyl)-6-(3-methyl-3-(methylsulfonyl)but-1-yn-1-yl)pyridin-3-yl)-1-(2,2,2-trifluoroethyl)-1H-indazol-3-yl)methylsulfonamido)methyl 2,2-dimethyl-3-(phosphonooxy)propanoate], under setting [1], the “pH 2 solubility” value was found to be 1 μM. Under setting [2], the “pH 7 solubility” value was determined as 73 μM.
The corresponding values for `CC(C)(C#Cc1ccc(-c2ccc(Cl)c3c(N(C(=O)OCCOCCOP(=O)(O)O)S(C)(=O)=O)nn(CC(F)(F)F)c23)c([C@H](Cc2cc(F)cc(F)c2)NC(=O)Cn2nc(C(F)(F)F)c3c2C(F)(F)[C@@H]2C[C@H]32)n1)S(C)(=O)=O` [Compound 106, 2-(2-(phosphonooxy)ethoxy)ethyl (4-chloro-7-(2-((S)-1-(2-((3bS,4aR)-5,5-difluoro-3-(trifluoromethyl)-3b,4,4a,5-tetrahydro-1H-cyclopropa[3,4]cyclopenta[1,2-c]pyrazol-1-yl)acetamido)-2-(3,5-difluorophenyl)ethyl)-6-(3-methyl-3-(methylsulfonyl)but-1-yn-1-yl)pyridin-3-yl)-1-(2,2,2-trifluoroethyl)-1H-indazol-3-yl)(methylsulfonyl)carbamate] are 4 μM and 100 μM.
For the compound `CC(C)(C#Cc1ccc(-c2ccc(Cl)c3c(N(C(=O)N[C@@](C)(CC(=O)O)C(=O)O)S(C)(=O)=O)nn(CC(F)(F)F)c23)c([C@H](Cc2cc(F)cc(F)c2)NC(=O)Cn2nc(C(F)(F)F)c3c2C(F)(F)[C@@H]2C[C@H]32)n1)S(C)(=O)=O` [Compound 65, (S)-2-(3-(4-chloro-7-(2-((S)-1-(2-((3bS,4aR)-5,5-difluoro-3-(trifluoromethyl)-3b,4,4a,5-tetrahydro-1H-cyclopropa[3,4]cyclopenta[1,2-c]pyrazol-1-yl)acetamido)-2-(3,5-difluorophenyl)ethyl)-6-(3-methyl-3-(methylsulfonyl)but-1-yn-1-yl)pyridin-3-yl)-1-(2,2,2-trifluoroethyl)-1H-indazol-3-yl)-3-(methylsulfonyl)ureido)-2-methylsuccinic acid], the “pH 2 solubility” value under setting [1] is recorded as 1 μM. In addition, the “pH 7 solubility” value under setting [2] was 52 μM.
For `CC(C)(C#Cc1ccc(-c2ccc(Cl)c3c(N(CCO)S(C)(=O)=O)nn(CC(F)(F)F)c23)c([C@H](Cc2cc(F)cc(F)c2)NC(=O)Cn2nc(C(F)(F)F)c3c2C(F)(F)[C@@H]2C[C@H]32)n1)S(C)(=O)=O` [Compound 18, N—((S)-1-(3-(4-chloro-3-(N-(2-hydroxyethyl)methylsulfonamido)-1-(2,2,2-trifluoroethyl)-1H-indazol-7-yl)-6-(3-methyl-3-(methylsulfonyl)but-1-yn-1-yl)pyridin-2-yl)-2-(3,5-difluorophenyl)ethyl)-2-((3bS,4aR)-5,5-difluoro-3-(trifluoromethyl)-3b,4,4a,5-tetrahydro-1H-cyclopropa[3,4]cyclopenta[1,2-c]pyrazol-1-yl)acetamide], under setting [1], the “pH 2 solubility” value was 1/1 μM. The “pH 7 solubility” value under setting [2] is recorded as 1/1 μM.
On to `CC(C)(C#Cc1ccc(-c2ccc(Cl)c3c(N(C(=O)OC(CCC(=O)O)CCC(=O)O)S(C)(=O)=O)nn(CC(F)(F)F)c23)c([C@H](Cc2cc(F)cc(F)c2)NC(=O)Cn2nc(C(F)(F)F)c3c2C(F)(F)[C@@H]2C[C@H]32)n1)S(C)(=O)=O` [Compound 124, 4-(((4-chloro-7-(2-((S)-1-(2-((3bS,4aR)-5,5-difluoro-3-(trifluoromethyl)-3b,4,4a,5-tetrahydro-1H-cyclopropa[3,4]cyclopenta[1,2-c]pyrazol-1-yl)acetamido)-2-(3,5-difluorophenyl)ethyl)-6-(3-methyl-3-(methylsulfonyl)but-1-yn-1-yl)pyridin-3-yl)-1-(2,2,2-trifluoroethyl)-1H-indazol-3-yl)(methylsulfonyl)carbamoyl)oxy)heptanedioic acid], for which the “pH 7 solubility” value is 2/83 μM. In addition, the “pH 2 solubility” value (pH 2) is 2/83 μM.

(Values after patent US12404262B2 (priority 2021, dated 2025).)
